Laboratory results: ChEMBL document CHEMBL4627413, “Targeted Delivery of Antisense Oligonucleotides Using Neurotensin Peptides” (J Med Chem, 2020)

Tests used:
Sortilin = molecular target: T1, Sortilin (Homo sapiens, UniProt Q99523); assay: Substrate activity at human SORT1 expressed in HEK293 cells assessed as compound uptake incubated for 2 hrs by flow cytometry; assay type: ADME, cell-based; conditions: hek293, 2 h
T1 sequence (Q99523 whole entry): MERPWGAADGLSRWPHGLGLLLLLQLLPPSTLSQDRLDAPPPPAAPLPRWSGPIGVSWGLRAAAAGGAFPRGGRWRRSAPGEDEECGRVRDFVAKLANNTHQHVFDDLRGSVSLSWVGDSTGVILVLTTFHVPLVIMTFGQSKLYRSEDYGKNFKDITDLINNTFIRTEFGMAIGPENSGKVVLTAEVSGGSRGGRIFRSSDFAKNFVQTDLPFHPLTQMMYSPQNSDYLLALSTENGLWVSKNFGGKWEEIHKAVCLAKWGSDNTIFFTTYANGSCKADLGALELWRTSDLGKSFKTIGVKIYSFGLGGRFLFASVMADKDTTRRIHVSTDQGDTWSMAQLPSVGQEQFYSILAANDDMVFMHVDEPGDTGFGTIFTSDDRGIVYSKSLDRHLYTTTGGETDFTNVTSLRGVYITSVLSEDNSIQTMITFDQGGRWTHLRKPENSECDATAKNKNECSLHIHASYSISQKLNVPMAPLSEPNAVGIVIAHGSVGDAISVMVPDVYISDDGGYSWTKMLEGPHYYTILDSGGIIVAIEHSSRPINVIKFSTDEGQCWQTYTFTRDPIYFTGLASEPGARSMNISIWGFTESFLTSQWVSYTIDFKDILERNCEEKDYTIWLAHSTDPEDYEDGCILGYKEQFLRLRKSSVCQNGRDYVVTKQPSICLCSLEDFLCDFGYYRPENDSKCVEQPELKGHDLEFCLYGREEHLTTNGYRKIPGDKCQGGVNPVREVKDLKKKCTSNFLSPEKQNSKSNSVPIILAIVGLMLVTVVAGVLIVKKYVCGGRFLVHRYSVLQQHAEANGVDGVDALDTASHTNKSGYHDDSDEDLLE

[1] = Drug uptake in HEK293 cells incubated for 2 hrs by flow cytometry; assay type: ADME, cell-based; conditions: human, hek293, 2 h

SMILES | Vmax (Sortilin) | Km (Sortilin) [µM] | Drug uptake [1]
CC[C@H](C)[C@H](NC(=O)[C@H](Cc1ccc(O)cc1)NC(=O)[C@@H]1CCCN1C(=O)[C@H](CCCNC(=N)N)NC(=O)[C@H](CCCNC(=N)N)NC(=O)[C@@H]1CCCN1C(=O)[C@H](CCCCN)NC(=O)[C@H](CC(N)=O)NC(=O)[C@H](CCC(=O)O)NC(=O)[C@H](Cc1ccc(O)cc1)NC(=O)[C@H](CC(C)C)NC(=O)CNC(=O)[C@@H]1CCCN1C(=O)[C@H](CO)NC(=O)[C@H](CO)NC(=O)CNC(=O)[C@H](C)NC(=O)[C@@H]1CCCN1C(=O)[C@@H]1CCCN1C(=O)[C@@H]1CCCN1C(=O)[C@@H](N)CCCCNC(=O)Cn1nnc2c1CC[C@H]1[C@@H](CC2)[C@H]1COC(=O)NCCOCCOCCNC(=O)CCCCC[N+]1=C(/C=C/C=C2/N(C)c3ccccc3C2(C)C)C(C)(C)c2ccccc21)C(=O)N[C@@H](CC(C)C)C(=O)O.[Cl-] | 1367 |  | 
CC[C@H](C)[C@H](NC(=O)[C@H](Cc1ccc(O)cc1)NC(=O)[C@@H]1CCCN1C(=O)[C@H](CCCNC(=N)N)NC(=O)[C@H](CCCNC(=N)N)NC(=O)[C@@H]1CCCN1C(=O)[C@H](CCCCN)NC(=O)[C@H](CC(N)=O)NC(=O)[C@H](CCC(=O)O)NC(=O)[C@H](Cc1ccc(O)cc1)NC(=O)[C@H](CC(C)C)NC(=O)[C@@H](N)CCCCNC(=O)Cn1nnc2c1CC[C@H]1[C@@H](CC2)[C@H]1COC(=O)NCCOCCOCCNC(=O)CCCCC[N+]1=C(/C=C/C=C2/N(C)c3ccccc3C2(C)C)C(C)(C)c2ccccc21)C(=O)N[C@@H](CC(C)C)C(=O)O.[Cl-] | 1397 | 0.08 | Not Active
